Laboratory results from US9561168B2, “Oral care compositions” (Colgate-Palmolive Company, priority 2011, dated 2017).

Tests used:
[1] = test system: single species Actinomyces viscosus biofilms; experiment: Inhibition of single species Actinomyces viscosus biofilm formation; format: cell-based; details: single species A. viscosus biofilm
Method: (§1) Mixed species bacteria are grown as follows: Actinomyces viscosus (ATCC #31346) is grown in trypticase soy broth supplemented with 0.6% yeast extract (TSB-YE) at 37° C., static culture. For mixed species assays, the source of bacteria is a continuous culture chemostat inoculated with A. viscosus, Lactobacillus casei (ATCC #334), Streptococcus oralis (ATCC #35037), Fusobacterium nucleatum (ATCC #10953), and Veilonella parvula (ATCC #17745). This mixed culture is maintained in a specialized complex medium in a continuous culture chemostat at 37° C.

Actinomyces viscosus = experiment: Minimum inhibitory concentration (MIC) against Actinomyces viscosus; format: cell-based
Method: as §1
Gallium nitrate is assessed in oral biofilm models. […] The advantage of gallium over other agents is that it appears to target the relatively starved bacteria found deeper in the biofilms that are usually less accessible to traditional antimicrobial agents.

[2] = antimicrobial agents currently in use in oral formulations; organism not stated; cited from earlier work
[3] = test system: five species biofilm (A. viscosus, Lactobacillus casei, Streptococcus oralis, Fusobacterium nucleatum, Veilonella parvula); experiment: Mixed (five) species biofilm test on saliva-coated HAP disks; format: cell-based; details: 250 ppm of ε-polylysine
Method: Mixed species biofilms are preformed on saliva-coated HAP disks (scHAP). Following saliva coating, disks are inoculated with 1 ml of mixed species culture from the continuous culture chemostat described above diluted to an OD610 of ˜0.2 in 0.5×TSB. Plates are incubated for 48 h at 37° C. to allow biofilms to form.
Disks containing preformed biofilms are transferred to a fresh 24-well culture plate and 1 ml of sterile 0.5×TSB medium containing the indicted concentration of test compound is added to each disk. Plates are incubated for 1 h at 37° C. with gentle agitation. […] Plates are sonicated for 2 min to pellet any residual HAP and supernatants are removed to fresh plates so that absorbance could be read at 610 nm.
All samples are tested in triplicate and the average of the three wells determined.

[4] = test system: other oral bacterial species tested; experiment: Antimicrobial activity against other oral bacterial species; format: cell-based; details: any other oral bacterial species tested (other than A. viscosus)

Row | Molecule | concentration able to inhibit formation of single species biofilms [1] [ppm] | minimum inhibitory concentration (MIC) (Actinomyces viscosus) | MTC values [2] | inhibition of multispecies biofilm formation [3] | antimicrobial activity against other oral bacterial species [4]
1 | O=[N+]([O-])[O-].O=[N+]([O-])[O-].O=[N+]([O-])[O-].[Ga+3] [gallium nitrate] | 30 | approximately 60 ppm | – | – | –
2 | Oc1cc(Cl)ccc1Oc1ccc(Cl)cc1Cl [triclosan] | – | – | less than 10 ppm | – | –
3 | ε-Polylysine | < 1 | < 1 ppm | – | less than 20% | does not have antimicrobial activity
